Measurements taken from paper PMC4548482 (Neuropharmacology, 2015).

How the values were obtained:
mouse 5-HT3A = target: T1, mouse 5-HT3A (Mus musculus, UniProt P23979); assay: Two-electrode voltage-clamp recording, mouse 5-HT3ARs in Xenopus oocytes; type: cell-based; set-up: concentration or dose not given beside the values; settings: inhibition of agonist-evoked responses, mean ± SEM
T1 construct: expressed in transfected cells; host or cells: Xenopus laevis oocytes
T1 sequence (P23979 24-489): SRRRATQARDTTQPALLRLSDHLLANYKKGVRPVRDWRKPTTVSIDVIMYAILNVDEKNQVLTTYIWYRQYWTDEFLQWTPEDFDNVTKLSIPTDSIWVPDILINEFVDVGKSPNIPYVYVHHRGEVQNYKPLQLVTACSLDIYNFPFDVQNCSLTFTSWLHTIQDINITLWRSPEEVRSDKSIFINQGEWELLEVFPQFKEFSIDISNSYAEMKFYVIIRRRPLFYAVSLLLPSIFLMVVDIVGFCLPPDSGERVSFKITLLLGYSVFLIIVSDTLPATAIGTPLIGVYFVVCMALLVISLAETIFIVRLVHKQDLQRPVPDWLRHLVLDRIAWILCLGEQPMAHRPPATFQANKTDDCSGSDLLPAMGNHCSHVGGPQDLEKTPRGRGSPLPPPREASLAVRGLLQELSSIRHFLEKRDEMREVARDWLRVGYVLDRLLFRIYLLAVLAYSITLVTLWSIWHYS
Description: (§1) All plasmid constructs used in this study have been described previously. These include plasmids containing cDNAs encoding human α3, α4, α7, β2 and β4 nAChR subunits in pSP64GL ([Broadbent et al., 2006]); rat α7 nAChR subunit in pcDNA3 ([Cooper and Millar, 1997]); α7/5-HT3A subunit chimera (containing the rat α7 N-terminal domain and mouse 5-HT3A transmembrane and C-terminal domain) in pcDNA3 ([Cooper and Millar, 1998]); human RIC-3 in pRK5 ([Lansdell et al., 2005]) and mouse 5-HT3A ([Maricq et al., 1991]) in pRK5.
(§2) Oocytes were isolated from adult female Xenopus laevis following procedures that have been approved by UCL's Biological Services Management Group and the UK Home Office. Oocytes were defolliculated as described previously ([Young et al., 2007]) by treatment with collagenase (2 mg/ml; Worthington Biochemicals, Freehold, NJ) in calcium-free Barth's solution containing 88 mM NaCl, 2.4 mM NaHCO3, 1 mM KCl, 0.82 mM MgSO4, and 15 mM Tris, pH 7.5. Heterologous expression was achieved by injection of wild-type or mutated α7 cRNA (6–12 ng) into oocyte cytoplasm. Oocytes were injected in a volume of 20–30 nl using a Drummond variable volume microinjector. After injection, oocytes were incubated at 18 °C in a calcium-containing Barth's solution (composition, as above, but with 0.77 mM CaCl2) supplemented with antibiotics (100 units/ml penicillin, 100 μg/ml streptomycin, 4 μg/ml kanamycin, and 50 μg/ml tetracycline). Experiments were performed on oocytes after 3–5 days of incubation. […] Two-electrode voltage-clamp recordings were performed (with the oocyte membrane potential held at −60 mV), as described previously ([Gill et al., 2012; Young et al., 2007]).

human α3β4 nAChRs = target: T2, human α3β4 nAChRs (Homo sapiens, UniProt P30926+P32297); assay: Two-electrode voltage-clamp recording, human α3β4 nAChRs in Xenopus oocytes; type: cell-based; set-up: concentration or dose not given beside the values; settings: inhibition of agonist-evoked responses, mean ± SEM
T2 construct: expressed in transfected cells; host or cells: Xenopus laevis oocytes
T2 sequence (P32297 32-505): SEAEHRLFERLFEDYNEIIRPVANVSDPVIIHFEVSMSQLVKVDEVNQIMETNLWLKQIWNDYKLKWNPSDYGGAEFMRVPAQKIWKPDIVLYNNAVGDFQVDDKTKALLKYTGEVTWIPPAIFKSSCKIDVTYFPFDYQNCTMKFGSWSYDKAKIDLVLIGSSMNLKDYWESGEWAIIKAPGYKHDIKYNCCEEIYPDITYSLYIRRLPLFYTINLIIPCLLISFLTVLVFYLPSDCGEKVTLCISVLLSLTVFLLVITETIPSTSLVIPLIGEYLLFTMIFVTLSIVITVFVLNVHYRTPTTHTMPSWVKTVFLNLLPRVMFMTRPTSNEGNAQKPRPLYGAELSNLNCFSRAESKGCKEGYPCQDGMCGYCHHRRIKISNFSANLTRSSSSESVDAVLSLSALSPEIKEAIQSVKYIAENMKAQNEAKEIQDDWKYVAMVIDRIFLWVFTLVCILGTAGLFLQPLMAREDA
T2 sequence (P30926 22-498): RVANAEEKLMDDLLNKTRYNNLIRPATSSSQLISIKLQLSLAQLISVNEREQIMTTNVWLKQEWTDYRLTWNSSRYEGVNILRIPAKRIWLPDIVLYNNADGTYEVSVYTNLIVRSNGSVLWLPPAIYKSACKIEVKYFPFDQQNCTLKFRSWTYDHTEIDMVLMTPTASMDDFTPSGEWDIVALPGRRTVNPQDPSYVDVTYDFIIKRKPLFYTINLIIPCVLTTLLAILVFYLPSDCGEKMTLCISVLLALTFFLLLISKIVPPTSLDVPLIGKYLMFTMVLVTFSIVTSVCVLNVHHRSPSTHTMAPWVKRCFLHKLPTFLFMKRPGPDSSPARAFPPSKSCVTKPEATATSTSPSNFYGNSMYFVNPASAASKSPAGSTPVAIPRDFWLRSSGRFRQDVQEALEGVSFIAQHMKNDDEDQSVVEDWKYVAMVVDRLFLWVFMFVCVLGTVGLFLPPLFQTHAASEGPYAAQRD
Description: as §1, §2

α7 L247T nAChRs = target: T3, α7 L247T nAChRs (Homo sapiens, UniProt P36544, L270T); assay: Two-electrode voltage-clamp recording, human α7 nAChRs containing the L247T mutation in Xenopus oocytes; type: cell-based; settings: α7 L247T; for nH (Hill coefficient) / EC50: mean ± SEM; for EC50: read-out: EC50 (agonist); for Imax: normalised to the maximum response to acetylcholine
T3 construct: expressed in transfected cells; host or cells: Xenopus laevis oocytes (cRNA injection)
T3 sequence (P36544 23-502 L270T): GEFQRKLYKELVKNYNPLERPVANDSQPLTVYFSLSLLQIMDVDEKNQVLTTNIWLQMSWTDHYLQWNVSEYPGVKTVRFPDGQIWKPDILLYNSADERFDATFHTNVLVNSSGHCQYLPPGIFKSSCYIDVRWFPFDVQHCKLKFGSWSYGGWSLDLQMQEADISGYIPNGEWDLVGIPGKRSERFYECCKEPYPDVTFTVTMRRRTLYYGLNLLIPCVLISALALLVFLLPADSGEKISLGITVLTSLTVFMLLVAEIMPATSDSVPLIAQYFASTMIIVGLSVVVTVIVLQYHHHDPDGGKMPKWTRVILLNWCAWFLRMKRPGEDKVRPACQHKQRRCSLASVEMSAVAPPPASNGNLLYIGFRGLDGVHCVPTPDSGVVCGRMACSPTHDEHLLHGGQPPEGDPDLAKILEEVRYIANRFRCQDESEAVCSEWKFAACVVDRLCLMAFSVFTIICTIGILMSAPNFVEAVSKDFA
Description: (§3) Site-directed mutagenesis was performed on human nAChR α7 subunit cDNA in plasmid pSP64GL using the QuikChange mutagenesis kit (Stratagene) and verified by nucleotide sequencing. Plasmid pSP64GL containing wild-type or mutated human α7 cDNA was linearized with BamHI and purified with QIAQuik PCR purification kit (Qiagen). In vitro synthesis of cRNA was performed using mMessage mMachine SP6 transcription kit (Life Technologies).
(§4) Oocytes were isolated from adult female Xenopus laevis following procedures that have been approved by UCL's Biological Services Management Group and the UK Home Office. […] Heterologous expression was achieved by injection of wild-type or mutated α7 cRNA (6–12 ng) into oocyte cytoplasm. Oocytes were injected in a volume of 20–30 nl using a Drummond variable volume microinjector. […] Experiments were performed on oocytes after 3–5 days of incubation.

[1] = target: T4, α7/5-HT3A subunit chimera (rat α7 N-terminal domain, mouse 5-HT3A transmembrane and C-terminal domain) (UniProt P23979+Q05941, M226I/T225I); assay: Two-electrode voltage-clamp recording, α7/5-HT3A subunit chimera in Xenopus oocytes; type: cell-based; set-up: concentration or dose not given beside the values; settings: α7/5-HT3A chimera; inhibition of agonist-evoked responses; mean ± SEM
T4 construct: containing the extracellular/N-terminal domain of the rat α7 nAChR subunit; the transmembrane/C-terminal domain of the mouse 5-HT3A subunit; expressed in transfected cells; host or cells: Xenopus laevis oocytes
T4 sequence (Q05941+P23979 fused Q05941:T225I/Q05941:M226I): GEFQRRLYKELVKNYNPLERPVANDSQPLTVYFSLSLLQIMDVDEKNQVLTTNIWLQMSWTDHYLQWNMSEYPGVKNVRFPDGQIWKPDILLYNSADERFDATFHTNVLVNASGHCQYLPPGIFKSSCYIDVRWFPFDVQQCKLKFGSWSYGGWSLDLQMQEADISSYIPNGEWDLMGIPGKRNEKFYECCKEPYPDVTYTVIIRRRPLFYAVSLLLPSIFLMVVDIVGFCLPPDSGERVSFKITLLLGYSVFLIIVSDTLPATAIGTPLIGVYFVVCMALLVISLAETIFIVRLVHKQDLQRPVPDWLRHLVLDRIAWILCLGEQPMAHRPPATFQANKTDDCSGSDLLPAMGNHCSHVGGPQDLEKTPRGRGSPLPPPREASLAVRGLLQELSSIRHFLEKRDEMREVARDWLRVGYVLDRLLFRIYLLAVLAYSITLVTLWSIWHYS
Description: as §1, §2

human α4β2 nAChRs = target: T5, human α4β2 nAChRs (Homo sapiens, UniProt P17787+P43681); assay: Two-electrode voltage-clamp recording, human α4β2 nAChRs in Xenopus oocytes; type: cell-based; set-up: concentration or dose not given beside the values; settings: inhibition of agonist-evoked responses, mean ± SEM
T5 construct: expressed in transfected cells; host or cells: Xenopus laevis oocytes
T5 sequence (P43681 29-627 limits assumed): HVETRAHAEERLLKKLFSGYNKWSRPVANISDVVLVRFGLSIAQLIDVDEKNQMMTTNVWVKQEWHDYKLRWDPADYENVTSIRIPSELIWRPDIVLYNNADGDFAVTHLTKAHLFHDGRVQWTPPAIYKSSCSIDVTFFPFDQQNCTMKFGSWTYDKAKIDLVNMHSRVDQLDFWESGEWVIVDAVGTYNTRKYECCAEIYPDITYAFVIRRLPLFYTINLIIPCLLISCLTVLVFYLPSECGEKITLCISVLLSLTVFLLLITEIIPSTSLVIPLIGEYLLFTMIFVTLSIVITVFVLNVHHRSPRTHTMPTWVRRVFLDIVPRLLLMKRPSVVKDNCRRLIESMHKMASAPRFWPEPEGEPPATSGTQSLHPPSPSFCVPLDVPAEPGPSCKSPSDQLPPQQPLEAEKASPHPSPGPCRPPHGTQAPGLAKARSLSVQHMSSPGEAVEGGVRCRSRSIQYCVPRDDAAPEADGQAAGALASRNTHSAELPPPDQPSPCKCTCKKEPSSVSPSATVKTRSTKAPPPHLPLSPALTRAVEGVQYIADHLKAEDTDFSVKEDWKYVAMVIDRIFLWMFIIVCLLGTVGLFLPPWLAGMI
T5 sequence (P17787 26-502): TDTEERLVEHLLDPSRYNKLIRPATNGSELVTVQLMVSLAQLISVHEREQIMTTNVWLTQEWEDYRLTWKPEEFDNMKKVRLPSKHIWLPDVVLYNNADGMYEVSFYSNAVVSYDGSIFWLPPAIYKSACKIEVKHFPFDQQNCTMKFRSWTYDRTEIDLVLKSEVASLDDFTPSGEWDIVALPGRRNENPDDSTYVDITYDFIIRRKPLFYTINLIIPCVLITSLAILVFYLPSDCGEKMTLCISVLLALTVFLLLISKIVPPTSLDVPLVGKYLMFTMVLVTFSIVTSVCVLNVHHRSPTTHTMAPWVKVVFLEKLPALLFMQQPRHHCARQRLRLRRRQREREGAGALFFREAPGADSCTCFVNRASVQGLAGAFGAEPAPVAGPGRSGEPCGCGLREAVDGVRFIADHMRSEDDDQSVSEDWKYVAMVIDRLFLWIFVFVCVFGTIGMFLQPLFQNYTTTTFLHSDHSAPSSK
Description: as §1, §2

α7 M260L nAChRs = target: T6, α7 M260L nAChRs (Homo sapiens, UniProt P36544, M283L); assay: Two-electrode voltage-clamp recording, human α7 nAChRs containing the M260L mutation in Xenopus oocytes; type: cell-based; settings: for Fold potentiation (maximum peak response compared to acetylcholine alone): acetylcholine 100 μM, pre- and co-application of modulator (10 μM); for Agonist effect on M260L receptors: compound applied alone; for Imax: normalised to the maximum response to acetylcholine
T6 construct: expressed in transfected cells; host or cells: Xenopus laevis oocytes (cRNA injection)
T6 sequence (P36544 23-502 M283L): as the sequence (P36544 23-502 L270T) above, with T248L, M261L counted along it
Description: as §3, §4

rat α7 nAChRs = target: T7, rat α7 nAChRs (Rattus norvegicus, UniProt Q05941); assay: Two-electrode voltage-clamp recording, rat α7 nAChRs in Xenopus oocytes; type: cell-based; settings: mean ± SEM
T7 construct: expressed in transfected cells; host or cells: Xenopus laevis oocytes
T7 sequence (Q05941 23-502): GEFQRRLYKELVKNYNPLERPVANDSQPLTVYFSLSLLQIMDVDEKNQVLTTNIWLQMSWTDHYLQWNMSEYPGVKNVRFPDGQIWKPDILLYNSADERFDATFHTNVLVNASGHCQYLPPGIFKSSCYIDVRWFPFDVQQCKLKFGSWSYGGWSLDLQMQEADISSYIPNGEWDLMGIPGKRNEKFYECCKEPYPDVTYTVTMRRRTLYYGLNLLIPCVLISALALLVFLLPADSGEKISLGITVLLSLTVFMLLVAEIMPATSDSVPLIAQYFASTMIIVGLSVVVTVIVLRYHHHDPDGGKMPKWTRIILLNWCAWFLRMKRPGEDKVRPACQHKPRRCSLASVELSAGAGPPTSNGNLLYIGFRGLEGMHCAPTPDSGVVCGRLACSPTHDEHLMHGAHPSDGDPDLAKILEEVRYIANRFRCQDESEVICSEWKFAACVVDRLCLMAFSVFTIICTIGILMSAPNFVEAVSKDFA
Description: as §1, §2

human α7 nAChRs [2] = target: T8, human α7 nAChRs (Homo sapiens, UniProt P36544); assay: Two-electrode voltage-clamp recording, wild-type human α7 nAChRs expressed in Xenopus oocytes; type: cell-based; settings: for Fold potentiation: Human α7, maximum fold potentiation of responses to an EC50 of acetylcholine (100 μM), mean ± SEM; for Imax: Wild-type α7, normalised to the maximum response to acetylcholine; for Effect on rate of desensitisation of acetylcholine-evoked responses: wild-type α7, acetylcholine 100 μM, pre- and co-application of PAM; for Desensitisation after receptor reactivation: acetylcholine co-applied with compound, period of 30 s; for Total net charge transfer relative to initial application of acetylcholine alone: measured during a 30 s application of compound in continued presence of acetylcholine (100 μM)
T8 construct: expressed in transfected cells; host or cells: Xenopus laevis oocytes (cRNA injection)
T8 sequence (P36544 23-502): as the sequence (P36544 23-502 L270T) above, with T248L counted along it
Description: All plasmid constructs used in this study have been described previously.
as §4

human α7 nAChRs [3] = target: T8, human α7 nAChRs; type: binding; settings: [3H]-α-bungarotoxin 1 nM; tsA201 cells
[4] = M260L α7, type I PAM 10 μM pre-applied for 10 s then co-applied, n = 3
[5] = wild-type α7 desensitised by continued acetylcholine (100 μM), compound 10 μM

SMILES | % Inhibition (mouse 5-HT3A) [%] | melting point [°C] | % Inhibition (human α3β4 nAChRs) [%] | nH (Hill coefficient) (α7 L247T nAChRs) | EC50 (α7 L247T nAChRs) [nM] | Imax (α7 L247T nAChRs) | % Inhibition [1] [%] | % Inhibition (human α4β2 nAChRs) [%] | Fold potentiation (maximum peak response compared to acetylcholine alone) (α7 M260L nAChRs; M260L α7) [fold] | Agonist effect on M260L receptors (α7 M260L nAChRs) | Imax (α7 M260L nAChRs; α7 M260L) | Fold potentiation (rat α7 nAChRs) [fold] | Fold potentiation (human α7 nAChRs [2]) [fold] | Imax (human α7 nAChRs [2]) | Effect on rate of desensitisation of acetylcholine-evoked responses (human α7 nAChRs [2]) | Recovery from desensitisation (reactivation of desensitised receptors) (human α7 nAChRs [2]; [5]) | Displacement of [3H]-α-bungarotoxin binding (human α7 nAChRs [3]) | Desensitisation after receptor reactivation (human α7 nAChRs [2]) | Total net charge transfer relative to initial application of acetylcholine alone (human α7 nAChRs [2]) [fold] | also measured
COc1ccc(-c2nc(-c3ccc(Br)cc3)nn2-c2ccc(S(N)(=O)=O)cc2)cc1 [TBS-346, 4-(3-(4-bromophenyl)-5-(4-methoxyphenyl)-1H-1,2,4-triazol-1-yl)benzenesulfonamide] | 30.8 ± 15.5 | 290 to 294 | 68.4 ± 3.0 | 1.7 ± 0.3 | 100 ± 40 | 0.9 ± 0.1 | 13.4 ± 7.7 | 23.1 ± 5.7 | 2.8 ± 0.6 | no agonist effect | 0.0 ± 0.0 | 8.7 ± 5.3 | 10.5 ± 2.5 | 0.0 ± 0.0 | minimal changes to desensitisation | no detectable responses | no significant displacement | – | – | Block of agonist responses to TBS-516 (10 μM) (α7 M260L nAChRs; [4]): 83.4 ± 4.1%; Block of agonist responses to TQS (10 μM) (α7 M260L nAChRs; [4]): 95.7 ± 1.1%
NS(=O)(=O)c1ccc(-n2nc(-c3ccc(Br)cc3)nc2Cc2ccccc2)cc1 [TBS-516, 4-(5-benzyl-3-(4-bromophenyl)-1H-1,2,4-triazol-1-yl)benzenesulfonamide] | 10.4 ± 7.5 | 203 to 205 | 31.1 ± 0.6 | 2.5 ± 0.3 | 200 ± 40 | 1.1 ± 0.1 | 9.2 ± 12.8 | 1.7 ± 0.4 | 8.0 ± 3.1 | converted into agonists | 3.7 ± 0.6 | 3.6 ± 1.0 | 11.3 ± 3.1 | 0.0 ± 0.0 | dramatic slowing of desensitisation | caused recovery from desensitisation | no significant displacement | no desensitisation was observed | 250 ± 71 | nH (Hill coefficient) (α7 M260L nAChRs; α7 M260L, mean ± SEM): 1.8 ± 0.3; EC50 (α7 M260L nAChRs; α7 M260L, mean ± SEM, read-out: EC50 (agonist)): 8900 ± 2500 nM; Response on reactivation of desensitised receptors relative to response to 100 μM acetylcholine (human α7 nAChRs [2]; [5]): 3.2 ± 0.9 fold
NS(=O)(=O)c1ccc(-n2nc(-c3ccc(Br)cc3)nc2CCc2ccccc2)cc1 [TBS-556, 4-(3-(4-bromophenyl)-5-phenethyl-1H-1,2,4-triazol-1-yl)benzenesulfonamide] | 10 ± 1.9 | 184 to 186 | 16 ± 13 | – | – | – | 1.0 ± 1.0 | 3.2 ± 0.9 | 6.6 ± 1.0 | converted into agonists | – | 4.3 ± 0.6 | 4.7 ± 0.2 | – | intermediate between those of classical type I and type II PAMs | caused recovery from desensitisation | no significant displacement | no desensitisation was observed | 27 ± 6 | Response on reactivation of desensitised receptors as % of the response to 100 μM acetylcholine (human α7 nAChRs [2]; [5]): 57.3 ± 10.1%
